Patent US5302611A, “Oxindole alkaloids having properties stimulating the immunologic system & preparation containing the same” (Keplinger; Klaus, priority 1980, dated 1994)
Where two headings read alike, the source gives them in different places.

What was measured:
[1] = system: neutrophil granulocytes (PMNL); experiment: Granulocytic test modified after BRANDT (phagocytosis of yeast particles); format: cell-based, human
Excerpt: 1. […] They represent about 60-70% of all leucocytes in the human blood. The phagocytosis effect of all these granulocytes can be measured in vitro according to a method developed by BRAND (Scand. J. Haematol. Suppl. 2, 1967) and modified by TYMPNER (Munich Med. Weekly 8, 251, 1978).
A granulocytic fraction is taken from the blood of healthy probands (PMNL--abbreviation of polymorphonuclearleucocytes)
This PMNL-fraction mainly consists of neutrophil granulocytes and few eosinophil and basophil granulocytes as well as of lymphocytes, monocytes and thrombocytes. After addition of a defined amount of yeast cells (Saccharomyces cerevisiae) and the substance to be tested incubation is carried out for 10 minutes at 37° C., the suspension is spread on an object carrier and incubated at room temperature for further 35 minutes. Then the spreads are coloured and microscopically evaluated. 100 PMNL-cells are selected per object carrier, and it is determined how many yeast particles of the individual cells have been phagocytised. The phagocytosis index indicates the average number of phagocytised yeast particles.
15 ml of heparinised venous blood of clinically healthy adults was diluted with 1.5% of dextran T 500 (Pharmacia) 2:1 and allowed to stand at room temperature for 30 minutes. The supernatant containing leucocytes was injected into a sterile plastic tube and centrifugated for 7 minutes at 500 r.p.m. The granulocytes in the deposit were washed twice with 5 ml of PPM I-buffer in each case. Then the granulocytes were suspended in about 5 ml of buffer and adjusted in the Neubauer's chamber to a concentration of 5×10^6 cells/ml.
Yeast suspended in 0.9% of NaCl was heated to 100° C., three times filtered through gaze and adjusted to 3-5×10^7 particles/ml.
The serum of 5 clinically healthy adults was mixed and frozen in portions of 5 ml. For the test dilution was carried out with 0.9% of NaCl 1:10.
The test was carried out as follows: 0.2 ml of substance dissolved in 0.9% of NaCl and 0.2 ml of 0.9% NaCl, as a control substance, were pipetted to 0.2 ml, each, of pool serum, granulocyte- and yeast suspension and first incubated for 10 minutes at 37° C. Then 0.5 ml of each preparation were applied to an object carrier and incubated in a humid chamber at room temperature for further 35 minutes. Granulocytes deposited, the supernatant was carefully washed with 0.9% of NaCl, and the object carrier was dried with a dryer.
100 granulocytes were counted out per object carrier, and it was determined how many yeast particles of the individual cells had been phagocytised. The phagocytosis index (PJ) indicates the average number of yeast particles per granulocyte. The increase (S) of the phagocytosis activity in the blank value was calculated according to: [formula]

[2] = system: isolated polymorphonuclear leucocytes (PMNL); experiment: Chemiluminescence test (CL), PMNL method (isolated granulocytes); format: cell-based, human; settings: CL method not stated
Method: 2. Chemiluminescence test (CL)
The low light yield of such CL-reactions of phagocytised cells is increased in the in-vitro-experiment by the addition of substances which are oxydated by activated oxygen and thus produce light of a certain wavelength, which can be physically measured. Suitable substrates are luminole (5-amino-2,3-dihydro-1,4-phthalazindione) and lucigenine (10,10'-dimethyl-9,9'-biacri-diniumdinitrate), which increase the CL-response by 10^3 times.
All tests were carried out in 6-channel-Biolumat LB 9505 of Berthold, connected to an Apple-computer with a CL-evaluation program of Berthold.
Lucigenine was chosen for light amplification which emits photons at a narrow wavelength distribution of about 510 nm and thus almost lies in the optimum of the photo-multiplier sensitivity.
The pH-value of the measuring solution should be between 7.1 and 7.4, which is obtained by the addition of veronal-buffered salt solution. The test substances were dissolved in phosphate-buffered salt solution, (PBS-buffer). Both buffer systems contain 0.1% of glucose, because the "respiratory-burst"-reaction is connected with an increase of the glucose-metabolism.
Opsonised zymosan was used for phagocyte-activation. The measurement of the CL of isolated granulocytes was carried out with native blood of isolated polymorphonuclear leucocytes (PMNL), which had been adjusted with PBS-Puffer to 10^6 […].
The test substances were first together with the isolated granulocytes or with the whole blood incubated at room temperature for 10 minutes and then in biclumate for 10 minutes at 37° C. After addition of the opsonised zymosan, measurement in the biolumat at 37° C. started. […] A curve which was typical for each substance was obtained. The integrated surfaces are directly proportional to the intensity of the CL-response.
For determining the stimulation of the "respiratory-burst" of granulocytes,which had taken place, the same formula as for the granulocytic test was used.
20 ml of native blood were mixed with 30 mg EDTA. 15 ml of this blood were mixed with 7 ml of dextran in a syringe and allowed to stand at room temperature for 30 minutes. The leucocyte-containing supernatant was transfered into a sterile centrifugal tube and centrifugated at 1000 r.p.m. for 10 minutes. The deposit consisted of leucocytes and residual portions of erythrocytes, which can influence measurement by their colour quench. The residual erythrocytes were removed by hypotonic lyis. For this purpose, the deposit was suspended in 0.25% of NaCl-solution and agitated on the whirlmix for 20 seconds. Then 20 ml of 1.6% NaCl-solution were admixed and agitated again. After centrifugation at 2000 r.p.m. for 10 minutes, the supernatant was sucked off and the whole process was repeated twice. Subsequently, the deposit was suspended in 2 ml of PBS-buffer and diluted 1:10 with Turcks-solution. It was adjusted in the Neubauer's chamber with PBS-buffer to 10^6 -cells/ml.
630 μl of veronal-buffered salt solution
100 μl of lucigenine-solution
200 μl of substance dissolved in PBS and PBS as control
After preincubation at room temperature for 10 minutes and subsequent incubation for 10 minutes at 37° C. in 6-channel-Biolumat, 40 μl of opsonised zymosan were admixed under through stirring and measurement was started. Measuring was stopped after 60 minutes.
The CL-response of the samples was stored by a computer over the measuring period, and after measurement illustrated in the form of a curve. By integration of the surfaces, the intensity of the CL-response of the respective sample was obtained in cpm.
The increase S of the CL-response by a test substance was calculated according to [formula]

[3] = up to a concentration of 10^-4 %

Molecule	activity in the granulocytic test [1]	percental phagocytosis increase ([1]; concentration 10^-2) [%]	percental phagocytosis increase ([1]; concentration 10^-3) [%]	percental phagocytosis increase ([1]; concentration 10^-4) [%]	percental phagocytosis increase ([1]; concentration 10^-5) [%]	effect in the granulocytic test [1, 3]	other results
COC(=O)C1=COC(C)C2CN3CCC4(C(=O)Nc5ccccc54)C3CC12 (single isomer, unassigned; isomer b) [Pteropodine, allo-pteropodine, isomer B]	active	11.2	21.7	26.1	23.0	–	percental increase of the CL-response ([2]; concentration 10^-3 %, listed as Pteropidine): 10.6%; percental increase of the CL-response ([2]; concentration 10^-4 %, listed as Pteropidine): 10.0%; percental increase of the CL-response ([2]; concentration 10^-5 %, listed as Pteropidine): 23.7%; percental increase of the CL-response ([2]; concentration 10^-6 %, listed as Pteropidine): 15.4%
C1CCN2C[C@@H]3C[C@@H](CN4CCCC[C@@H]34)[C@H]2C1 [sparteine, reference compound]	–	–	–	–	–	did not show any effect	–
COc1cc2c(cc1OC)[C@H](Cc1ccc(Oc3c4c(cc(OC)c3OC)-c3c(OC)c(OC)c(OC)c5c3[C@H](C4)N(C)CC5)cc1)N(C)CC2 [thalifaberine, reference compound]	–	–	–	–	–	negative	–
COc1ccc2cc3[n+](cc2c1OC)CCc1cc2c(cc1-3)OCO2 [berberine, reference compound]	–	–	–	–	–	inactive	–
C=C[C@]12CN(C)[C@@H]3[C@H]4CO[C@H](C[C@H]41)[C@]1(C(=O)Nc4ccccc41)[C@@H]32 [Gelsemine, gelsemine, reference compound]	–	22.1	40.4	33.7	8.2	–	–
thalifabine [reference compound]	–	–	–	–	–	negative	–
CC[C@@]1(O)C(=O)OCc2c1cc1n(c2=O)Cc2cc3ccccc3nc2-1 [camotothecine, reference compound]	–	–	–	–	–	–	effect in the granulocytic test ([1]; up to dilutions of 10^-6 %): no effects have been found
huangshanine [reference compound]	–	–	–	–	–	negative	–
COC(=O)C1=COC(C)C2CN3CCC4(C(=O)Nc5ccccc54)C3CC12 (single isomer, unassigned; isomer b) [Mitraphylline, normal-mitraphylline, isomer B]	not active	–	–	–	–	–	–
COC(=O)C1=COC(C)C2CN3CCC4(C(=O)Nc5ccccc54)C3CC12 (single isomer, unassigned; isomer a) [Isomitraphylline, normal-isomitraphylline, isomer A]	active	16.5	27.0	27.0	19.4	–	percental phagocytosis increase ([1]; concentration 10^-6): 5.7%; percental increase of the CL-response ([2]; concentration 10^-3 %): 15.4%; percental increase of the CL-response ([2]; concentration 10^-4 %): 15.7%; percental increase of the CL-response ([2]; concentration 10^-5 %): 36.1%; percental increase of the CL-response ([2]; concentration 10^-6 %): 46.7%; percental increase of the CL-response ([2]; concentration 10^-7 %): 18.6%
CCC1CN2CCC3(C(=O)Nc4ccccc43)C2CC1C(=COC)C(=O)OC (single isomer, unassigned; isomer a) [Isorhynchophylline, normal-isorhynchophylline, isomer A]	active	10.8	25.2	27.3	16.1	–	percental phagocytosis increase ([1]; concentration 10^-6): 8.8%
CCC1CN2CCC3(C(=O)Nc4ccccc43)C2CC1C(=COC)C(=O)OC (single isomer, unassigned; isomer b) [Rhynchophylline, normal-rhynchophyllin, isomer B]	not active	–	–	–	–	–	–
COC(=O)C1=COC(C)C2CN3CCC4(C(=O)Nc5ccccc54)C3CC12 (single isomer, unassigned; isomer a) [Isopteropodine, allo-isopteropodine, isomer A]	active	23.4	48.7	55.9	38.2	–	percental phagocytosis increase ([1]; concentration 10^-6): 28.2%; percental phagocytosis increase ([1]; concentration 10^-7): 13.6%; activation at 1e-08 % ([2]; Homo sapiens, PMNL, concentration 10^-8 %, read-out: percental increase of the CL-response): 31.2%; percental increase of the CL-response ([2]; concentration 10^-3 %): 67.2%; percental increase of the CL-response ([2]; concentration 10^-4 %): 66.0%; percental increase of the CL-response ([2]; concentration 10^-5 %): 55.7%; percental increase of the CL-response ([2]; concentration 10^-6 %): 68.1%; percental increase of the CL-response ([2]; concentration 10^-7 %): 55.3%
COC(=O)C1=COC(C)C2CN3CCC4(C(=O)Nc5ccccc54)C3CC12 (centres unmarked) [Speciophylline, speciophylline]	–	10.5	18.5	26.0	35.3	–	–
O=c1cccc2n1C[C@@H]1CNC[C@H]2C1 [cytisine, reference compound]	–	–	–	–	–	–	effect in the granulocytic test [1]: did not show any effect
